This note sets out measurements from paper PMC5667506, “Potent and selective inhibition of SH3 domains with dirhodium metalloinhibitors” (Chemical Science, 2015).

Test [1] has as its target T1, Lyn SH3 H96A mutant (Homo sapiens, UniProt P07948, H96A).
T1 construct: The lyn SH3 domain was amplified by PCR using Phusion DNA polymerase; GST (N, cleaved yes); made in house; host or cells: E. coli BL21 (DE3)
Nature of the test: Binding to Lyn SH3 H96A mutant. Conditions: read-out: affinity. On the procedure: The remarkable 6 nM affinity, far stronger than that of any reported non-protein ligand for SH3 domains, led us to study the structural basis of the observed affinity. […] The H78A and H96A double mutant binds much more weakly (>5 μM). […] That the majority of the stabilization energy comes from the first histidine coordination is consistent with the negative cooperativity generally seen for axial coordination to rhodium(II): a second coordination in solution is roughly two orders of magnitude less favorable.[40]–[43]
Abl SH3 domain preparation. The abl SH3 domain was amplified by PCR using Phusion DNA polymerase (Finnzymes). The
reactions were performed following manufacture's protocol with Phusion HF buffer and 5% DMSO. Primers were designed as
follows: 5'-[…]-3' (BamHI site underlined) and a reverse primer, 5'-
-3' (EcoRI site underlined). The resultant product was digested with
BamHI and EcoRI and subcloned into BamHI-EcoRI sites of pGex-KTO. Confirmed PCR fidelity by sequencing.
Hck SH3 domain preparation. The hck SH3 domain was amplified by PCR using Phusion DNA polymerase (Finnzymes). The
Lyn SH3 domain preparation. The lyn SH3 domain was amplified by PCR using Phusion DNA polymerase (Finnzymes). The […]
assessed by SDS-PAGE using 12% Bis-Tris gels (Invitrogen). […]
concentrated, and aliquoted for storage at –80 °C. Concentration was determined using the absorbance at 280 nm (NanoDrop, […]

For test [2], the target named is T2, Src SH3 domain (Homo sapiens, UniProt P12931).
T2 construct: fyn, yes, lck, and src SH3 protein domains were prepared following published procedures; made in house
Nature of the test: ITC binding to Src SH3 domain. The procedure:
All chemical reagents were purchased from Sigma-Aldrich and were used without further purification.
Peptide synthesis. All peptides were synthesized manually or with an AAPPTEC APEX 396 Automated Multipeptide Synthesizer using standard solid-phase Fmoc protocols.1,2 Peptides were prepared as C-terminal amides using Rink amide MBHA resin (AAPPTEC) and were acetylated at the N-terminus prior to cleavage from the resin. Peptides and metallopeptides were purified by reverse-phase HPLC.
HPLC separation. Reverse-phase HPLC was performed on a Shimadzu CBM-20A instrument with Phenomenex Jupiter 4μ Proteo 90A (250 × 15 mm preparative) and Phenomenex Jupiter 4μ Proteo 90A (250 × 4.6 mm analytical) columns. The columns were eluted with a gradient of acetonitrile in water (10-90%) (flow rates of 8 mL/min and 1 mL/min for preparative and analytical columns, respectively). Trifluoroacetic acid (0.1%) was added to all eluents.
FPLC separation. Analytical FPLC was performed on an ÄKTA instrument with Superdex Peptide PE 7.5/300 column. The column was equilibrated with buffer (150 mM NaCl, 50 mM Tris, pH 7.0) at flow rate of 0.2 mL/min.
ITC analysis. ITC experiments were carried out on a VP-ITC instrument (MicroCal) at 25 °C. Titrations of 275 μM peptide into 18 μM SH3 domain proteins were used for all titrations, except for the titration of S2ERh into Lyn SH3 domain, where the lower concentrations of 69 µM S2ERh peptide and 4 µM Lyn SH3 were used to attain a c-value for the titration within the accepted limts for ITC experiments ([…]).3
Heats of dilutions were measured independently for each experiment by titrating 275 μM peptide into buffer (20 mM phosphate buffer, pH 7, 150 mM NaCl, 1 mM EDTA). All experimental data were fitted using a one set of sites binding model in Origin software (MicroCal) except for the data with Hck SH3 domain. With Hck only, the non-peptide specific binding of dirhodium tetraacetate to Hck SH3 domain could not be treated as negligible, despite the very weak interaction (88 µM), due to the larger enthalpy contribution observed for non-specific binding to this SH3 domain, so the titrations of peptide into Hck were fitted using a 2 set of sites binding model where the stoichiometry for the second set of sites was fixed at 2.0. […]
Mass spectrometry. ESI-MS was performed on a Bruker Daltonics micrOTOF instrument.
Known compounds and proteins. Several metallopeptides (S2ERh, L3ERh, R5ERh, and 13DRh) were reported previously and were prepared by known protocols;4 alkyne-diazo 3,5 3-azido-7-hydroxycoumarin6 were synthesized following reported procedures; fyn, yes, lck, and src SH3 protein domains were prepared following published procedures.5 Abl, hck, and lyn SH3 domain plasmids were adapted from the previously reported genes;7 the gene templates were obtained from Addgene, ID

pKd: −log10 of the molar value.

T1 sequence (P07948 63-123 H96A limits assumed): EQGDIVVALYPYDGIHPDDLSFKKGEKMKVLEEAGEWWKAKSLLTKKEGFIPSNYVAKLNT

As to “AcVELARRPLPPLPN-NH2 (Ac-VELARRPLPPLPN-NH2; also: Glu2 side-chain carboxylate bound to Rh2(OAc)3) [S2E^Rh, rhodium(II) metallopeptide made from S2E peptide (Ac…-NH2) and Rh2(tfa)(OAc)3]”, in test [1], the pKd is 7.41.
In turn, AcVELARRPLPPLPN-NH2 [S2E^Rh] returned a Stoichiometry in test [2] of 1.1. In addition, in test [2] (25 °C), the “-TΔS” value came out at 7.2 kcal/mol, the pKd was 6.49, the ΔG was -8.8 kcal/mol and the ΔH is -16.0 kcal/mol.
